Assay results published in patent US9873709B2 (priority 2013, dated 2018).

Test system: JAK1-dependent STAT6 phosphorylation downstream of IL-13 stimulation in TF-1 human erythroleukemia cells
Test: cells
Conditions: TF-1, read-out: IL-13-pSTAT6 IC50

Compound | IC50 [nM]
CN1CCC(NC(=O)c2ccc(Nc3nc4c(N5CCC(O)(c6ccc(Cl)cc6)CC5)cccn4n3)cc2)CC1 [Example 1-105, 4-[[8-[4-(4-chlorophenyl)-4-hydroxy-1-piperidyl]-[1,2,4]triazolo[1,5-a]pyridin-2-yl]amino]-N-(1-methyl-4-piperidyl)benzamide] | 14.1
CCOC(=O)N1CC=C(c2cccn3nc(Nc4ccc(C(=O)NCCC5CCCN5C)cc4)nc23)CC1 (centres unmarked) [Example 2-111, ethyl 4-[2-[4-[2-(1-methylpyrrolidin-2-yl)ethylcarbamoyl]anilino]-[1,2,4]triazolo[1,5-a]pyridin-8-yl]-3,6-dihydro-2H-pyridine-1-carboxylate] | 22.6
CN1CCC(N(C)C(=O)c2ccc(Nc3nc4c(C5=CCN(C(=O)OCc6ccccc6)CC5)cccn4n3)cc2)CC1 [Example 2-351, benzyl 4-[2-[4-[methyl-(1-methyl-4-piperidyl)carbamoyl]anilino]-[1,2,4]triazolo[1,5-a]pyridin-8-yl]-3,6-dihydro-2H-pyridine-1-carboxylate] | 52.6
CCOC(=O)N1CC=C(c2cccn3nc(Nc4ccc(C(=O)NCC5CCNC5)cc4)nc23)CC1 (centres unmarked) [Example 2-296, ethyl 4-[2-[4-(pyrrolidin-3-ylmethylcarbamoyl)anilino]-[1,2,4]triazolo[1,5-a]pyridin-8-yl]-3,6-dihydro-2H-pyridine-1-carboxylate] | 383
O=C(CCC(F)(F)F)N1CC=C(c2cccn3nc(Nc4ccc(C(=O)N5CCCC6(CCCCN6)C5)cc4)nc23)CC1 (centres unmarked) [Example 2-383, 1-[4-[2-[4-(1,8-diazaspiro[5.5]undecane-8-carbonyl)anilino]-[1,2,4]triazolo[1,5-a]pyridin-8-yl]-3,6-dihydro-2H-pyridin-1-yl]-4,4,4-trifluoro-butan-1-one] | 9
O=C(CCC(F)(F)F)N1CC=C(c2cccn3nc(Nc4ccc(C(=O)N5CCC(c6ccncc6)CC5)cc4)nc23)CC1 [Example 2-456, 4,4,4-trifluoro-1-[4-[2-[4-[4-(4-pyridyl)piperidine-1-carbonyl]anilino]-[1,2,4]triazolo[1,5-a]pyridin-8-yl]-3,6-dihydro-2H-pyridin-1-yl]butan-1-one] | 7.5
O=C(CCC(F)(F)F)N1CC=C(c2cccn3nc(Nc4ccc(C(=O)N5CCC6CNCC65)cc4)nc23)CC1 (centres unmarked) [Example 2-386, 1-[4-[2-[4-(3,3a,4,5,6,6a-hexahydro-2H-pyrrolo[2,3-c]pyrrole-1-carbonyl)anilino]-[1,2,4]triazolo[1,5-a]pyridin-8-yl]-3,6-dihydro-2H-pyridin-1-yl]-4,4,4-trifluoro-butan-1-one] | 155
CC(=O)N1CC=C(c2cccn3nc(Nc4ccc(C(=O)N(C)C5CCN(C)CC5)cc4)nc23)CC1 [Example 2-344, 4-[[8-(1-acetyl-3,6-dihydro-2H-pyridin-4-yl)-[1,2,4]triazolo[1,5-a]pyridin-2-yl]amino]-N-methyl-N-(1-methyI-4-piperidyl)benzamide] | 1800
O=C(N[C@H]1[C@@H]2CNC[C@@H]21)c1ccc(Nc2nc3c(C4=CCN(C(=O)CCC(F)(F)F)CC4)cccn3n2)cc1 [Example 2-454, N-[(1R,5S)-3-azabicyclo[3.1.0]hexan-6-yl]-4-[[8-[1-(4,4,4-trifluorobutanoyl)-3,6-dihydro-2H-pyridin-4-yl]-[1,2,4]triazolo[1,5-a]pyridin-2-yl]amino]benzamide] | 87.9
NCC1CCN(C(=O)c2ccc(Nc3nc4c(N5CCC(O)(c6ccc(Cl)cc6)CC5)cccn4n3)cc2)CC1 [Example 1-193, [4-(aminomethyl)-1-piperidyl]-[4-[[8-[4-(4-chlorophenyl)-4-hydroxy-1-piperidyl]-[1,2,4]triazolo[1,5-a]pyridin-2-yl]amino]phenyl] methanone] | 249
CN1CCCC2(CCCN(C(=O)c3ccc(Nc4nc5c(C6=CCN(C(=O)CCC(F)(F)F)CC6)cccn5n4)cc3)C2)C1 (centres unmarked) [Example 2-93, 4,4,4-trifluoro-1-[4-[2-[4-(8-methyl-2,8-diazaspiro[5.5]undecane-2-carbonyl)anilino]-[1,2,4]triazolo[1,5-a]pyridin-8-yl]-3,6-dihydro-2H-pyridin-1-yl]butan-1-one] | 4.7
CN1CCC(N(C)C(=O)c2ccc(Nc3nc4c(C5=CCN(C(=O)CCC#N)CC5)cccn4n3)cc2)CC1 [Example 2-287, 4-[[8-[1-(3-cyanopropanoyl)-3,6-dihydro-2H-pyridin-4-yl]-[1,2,4]triazolo[1,5-a]pyridin-2-yl]amino]-N-methyl-N-(1-methyl-4-piperidyl)benzamide] | 248
O=C(CCC(F)(F)F)N1CC=C(c2cccn3nc(Nc4ccc(C(=O)N5CCCC6(CCCNC6)C5)cc4)nc23)CC1 (centres unmarked) [Example 2-443, 1-[4-[2-[4-(2,8-diazaspiro[5.5]undecane-2-carbonyl)anilino]-[1,2,4]triazolo[1,5-a]pyridin-8-yl]-3,6-dihydro-2H-pyridin-1-yl]-4,4,4-trifluoro-butan-1-one] | 72.3
Cc1cccc(C(C)NC(=O)c2ccc(Nc3nc4c(C5=CCN(C(=O)CCC(F)(F)F)CC5)cccn4n3)cc2)n1 (centres unmarked) [Example 2-401, N-[1-(6-methyl-2-pyridyl)ethyl]-4-[[8-[1-(4,4,4-trifluorobutanoyl)-3,6-dihydro-2H-pyridin-4-yl]-[1,2,4]triazolo[1,5-a]pyridin-2-yl]amino]benzamide] | 6
O=C(c1ccc(Nc2nc3c(N4CCC(O)(c5ccc(Cl)cc5)CC4)cccn3n2)cc1)N1CCC2(CC1)CNCCO2 [Example 1-230, [4-[[8-[4-(4-chlorophenyl)-4-hydroxy-1-piperidyl]-[1,2,4]triazolo[1,5-a]pyridin-2-yl]amino]phenyl]-(1-oxa-4,9-diazaspiro[5.5]undecan-9-yl)methanone] | 58.1
CCOC(=O)N1CC=C(c2cccn3nc(Nc4ccc(C(=O)NCc5ccc(C)nc5)cc4)nc23)CC1 [Example 2-245, ethyl 4-[2-[4-[(6-methyl-3-pyridyl)methylcarbamoyl]anilino]-[1,2,4]triazolo[1,5-a]pyridin-8-yl]-3,6-dihydro-2H-pyridine-1-carboxylate] | 12.2
O=C(CCC(F)(F)F)N1CC=C(c2cccn3nc(Nc4ccc(C(=O)N5CCN(CC6CC6)CC5)cc4)nc23)CC1 [Example 2-398, 1-[4-[2-[4-[4-(cyclopropylmethyl)piperazine-1-carbonyl]anilino]-[1,2,4]triazolo[1,5-a]pyridin-8-yl]-3,6-dihydro-2H-pyridin-1-yl]-4,4,4-trifluoro-butan-1-one] | 8.6
CNC(=O)C1CN(C(=O)c2ccc(Nc3nc4c(C5=CCN(C(=O)CCC(F)(F)F)CC5)cccn4n3)cc2)CCN1Cc1ccccc1 (centres unmarked) [Example 2-342, 1-benzyl-N-methyl-4-[4-[[8-[1-(4,4,4-trifluorobutanoyl)-3,6-dihydro-2H-pyridin-4-yl]-[1,2,4]triazolo[1,5-a]pyridin-2-yl]amino]benzoyl] piperazine-2-carboxamide] | 16.2
O=C(NCC1COC2(CCNCC2)C1)c1ccc(Nc2nc3c(N4CCC(O)(c5ccc(Cl)cc5)CC4)cccn3n2)cc1 (centres unmarked) [Example 1-220, 4-[[8-[4-(4-chlorophenyl)-4-hydroxy-1-piperidyl]-[1,2,4]triazolo[1,5-a]pyridin-2-yl]amino]-N-(1-oxa-8-azaspiro[4.5]decan-3-ylmethyl)benzamide] | 637
CN1CCC(N(C)C(=O)c2ccc(Nc3nc4c(C5=CCN(C(=O)N6CC(C)(C)C6)CCC5)cccn4n3)cc2)CC1 [Example 2-480, 4-[[8-[1-(3,3-dimethylazetidine-1-carbonyl)-2,3,4,7-tetrahydroazepin-5-yl]-[1,2,4]triazolo[1,5-a]pyridin-2-yl]amino]-N-methyl-N-(1-methyl-4-piperidyl)benzamide] | 178
CN1CCCCC1C1CCCN1C(=O)c1ccc(Nc2nc3c(C4=CCN(C(=O)CCC(F)(F)F)CC4)cccn3n2)cc1 (centres unmarked) [Example 2-324, 4,4,4-trifluoro-1-[4-[2-[4-[2-(1-methyl-2-piperidyl)pyrrolidine-1-carbonyl]anilino]-[1,2,4]triazolo[1,5-a]pyridin-8-yl]-3,6-dihydro-2H-pyridin-yl]butan-1-one] | 8.2
CCOC(=O)N1CC=C(c2cccn3nc(Nc4ccc(C(=O)NCCCN5CCN(C)CC5)cc4)nc23)CC1 [Example 2-291, ethyl 4-[2-[4-[3-(4-methylpiperazin-1-yl)propylcarbamoyl]anilino]-[1,2,4]triazolo[1,5-a]pyridin-8-yl]-3,6-dihydro-2H-pyridine-1-carboxylate] | 22.3
Cc1cc(N(C)C)cc(C2CCCN2C(=O)c2ccc(Nc3nc4c(C5=CCN(C(=O)CCC(F)(F)F)CC5)cccn4n3)cc2)n1 (centres unmarked) [Example 2-92, 1-[4-[2-[4-[2-[4-(dimethylamino)-6-methyl-2-pyridyl]pyrrolidine-1-carbonyl]anilino]-[1,2,4]triazolo[1,5-a]pyridin-8-yl]-3,6-dihydro-2H-pyridin-1-yl]-4,4,4-trifluoro-butan-1-one] | 20.9
CN1CCCCC1CNC(=O)c1ccc(Nc2nc3c(N4CCC(O)(c5ccc(Cl)cc5)CC4)cccn3n2)cc1 (centres unmarked) [Example 1-103, 4-[[8-[4-(4-chlorophenyl)-4-hydroxy-1-piperidyl]-[1,2,4]triazolo[1,5-a]pyridin-2-yl]amino]-N-[(1-methyl-2-piperidyl)methyl]benzamide] | 23.8
CN1CCC(N(C)C(=O)c2ccc(Nc3nc4c(C5=CCN(C(=O)OC6COC6)CC5)cccn4n3)cc2)CC1 [Example 2-283, oxetan-3-yl-4-[2-[4-[methyl-(1-methyl-4-piperidyl)carbamoyl]anilino]-[1,2,4]triazolo[1,5-a]pyridin-8-yl]-3,6-dihydro-2H-pyridine-1-carboxylate] | 54
CC1CCCN(C2CCN(C(=O)c3ccc(Nc4nc5c(C6=CCN(C(=O)CCC(F)(F)F)CC6)cccn5n4)cc3)CC2)C1 (centres unmarked) [Example 2-461, 4,4,4-trifluoro-1-[4-[2-[4-[4-(3-methyl-1-piperidyl)piperidine-1-carbonyl]anilino]-[1,2,4]triazolo[1,5-a]pyridin-8-yl]-3,6-dihydro-2H-pyridin-1-yl]butan-1-one] | 6.1
